The molecules below were run against T1, CFTR ΔF508 mutant (Homo sapiens, UniProt P13569, DEL508-508) (assay: YFP-halide influx assay for the CFTR-ΔF508 mutation, gluconate buffer). Conditions: CFBE41o- cells, forskolin 10.67 μM.
T1 construct: expressed in transfected cells; host or cells: CFBE41o- (adenoviral transduction)
T1 sequence (P13569 with tags, fused parts or gaps DEL508-508): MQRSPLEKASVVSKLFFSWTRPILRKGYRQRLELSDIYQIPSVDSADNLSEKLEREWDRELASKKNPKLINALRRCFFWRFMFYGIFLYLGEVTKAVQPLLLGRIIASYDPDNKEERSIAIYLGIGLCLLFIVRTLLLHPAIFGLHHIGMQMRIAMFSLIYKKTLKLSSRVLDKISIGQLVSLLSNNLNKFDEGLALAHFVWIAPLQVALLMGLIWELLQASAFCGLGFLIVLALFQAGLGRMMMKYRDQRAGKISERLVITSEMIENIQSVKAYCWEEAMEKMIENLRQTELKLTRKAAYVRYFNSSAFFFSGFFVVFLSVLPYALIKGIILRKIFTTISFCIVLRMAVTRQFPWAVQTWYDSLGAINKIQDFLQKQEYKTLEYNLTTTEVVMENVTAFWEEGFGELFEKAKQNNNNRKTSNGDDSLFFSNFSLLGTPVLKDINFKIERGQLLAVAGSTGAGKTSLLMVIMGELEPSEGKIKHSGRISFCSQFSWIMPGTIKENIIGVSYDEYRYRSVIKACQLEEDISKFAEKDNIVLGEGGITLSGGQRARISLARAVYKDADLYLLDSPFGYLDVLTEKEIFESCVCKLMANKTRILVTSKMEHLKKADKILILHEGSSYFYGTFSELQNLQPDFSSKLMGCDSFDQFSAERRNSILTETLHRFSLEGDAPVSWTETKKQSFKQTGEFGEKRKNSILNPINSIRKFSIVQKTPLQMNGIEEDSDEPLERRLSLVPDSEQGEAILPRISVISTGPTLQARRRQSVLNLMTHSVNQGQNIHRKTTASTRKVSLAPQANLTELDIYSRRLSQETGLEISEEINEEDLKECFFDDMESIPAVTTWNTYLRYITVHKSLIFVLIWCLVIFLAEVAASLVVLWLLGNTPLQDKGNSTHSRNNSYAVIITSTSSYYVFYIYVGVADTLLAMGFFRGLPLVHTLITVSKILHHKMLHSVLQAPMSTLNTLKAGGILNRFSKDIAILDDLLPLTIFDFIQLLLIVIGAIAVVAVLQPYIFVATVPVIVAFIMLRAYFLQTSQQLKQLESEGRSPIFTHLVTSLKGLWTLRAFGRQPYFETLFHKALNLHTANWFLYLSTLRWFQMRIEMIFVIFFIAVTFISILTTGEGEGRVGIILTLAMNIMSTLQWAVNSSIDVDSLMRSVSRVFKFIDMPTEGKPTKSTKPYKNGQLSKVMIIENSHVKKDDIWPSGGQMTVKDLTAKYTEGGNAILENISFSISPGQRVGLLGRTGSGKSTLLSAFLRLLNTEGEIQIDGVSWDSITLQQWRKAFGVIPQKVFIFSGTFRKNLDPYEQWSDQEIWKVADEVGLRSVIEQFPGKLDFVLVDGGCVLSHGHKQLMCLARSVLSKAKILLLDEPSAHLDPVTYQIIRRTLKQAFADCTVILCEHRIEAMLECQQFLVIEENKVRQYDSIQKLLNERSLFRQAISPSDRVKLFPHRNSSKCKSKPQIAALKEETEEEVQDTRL
Type: cell-based
How it was run: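 Channel opening is read as the fall in YFP fluorescence over 7 s following iodide injection, expressed as 1-F/F0 and plotted versus compound concentration to derive EC50. Cells used were CFBE41o- expressing adenoviral ΔF508 CFTR and halide-sensitive YFP, rescued by 24 h at 27 °C or 24 h modulator treatment at 37 °C.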
Cc1c(S(=O)(=O)N2CCOCC2)sc(NC(=O)c2cc[nH]n2)c1C(N)=O [Compound 90, N-(3-carbamoyl-4-methyl-5-(morpholinosulfonyl)thiophen-2-yl)-1H-pyrazole-3-carboxamide] gave an EC50 of 261 nM.
Work on NC(=O)c1cc(S(=O)(=O)N2CCOCC2)sc1NC(=O)c1ccccn1 [Compound 91, N-(3-carbamoyl-5-(morpholinosulfonyl)thiophen-2-yl) picolinamide] yielded an EC50 of 1520 nM.
Work on Cc1c(S(=O)(=O)N2CCOCC2)sc(NC(=O)C(C)(C)C)c1C(N)=O [Compound 92, 4-methyl-5-(morpholinosulfonyl)-2-pivalamidothiophene-3-carboxamide] yielded an EC50 of 953 nM.
Work on NC(=O)c1cc(S(=O)(=O)N2CCOCC2)sc1NC(=O)c1nccs1 [Compound 93, N-(3-carbamoyl-5-(morpholinosulfonyl)thiophen-2-yl)thiazole-2-carboxamide] yielded an EC50 of 3330 nM.
With NC(=O)c1cc(S(=O)(=O)N2CCOCC2)sc1NC(=O)c1cocn1 [Compound 94, N-(3-carbamoyl-5-(morpholinosulfonyl)thiophen-2-yl) oxazole-4-carboxamide] the EC50 was 3330 nM.
CC(C)(C)c1cc(C(=O)Nc2sc(S(=O)(=O)c3ccccc3)cc2C(N)=O)n[nH]1 [Compound 96, 5-tert-butyl-N-(3-carbamoyl-5-(phenylsulfonyl)thiophen-2-yl)-1H-pyrazole-3-carboxamide] showed an EC50 of 253 nM.
For NC(=O)c1cc(S(=O)(=O)N2CCOCC2)sc1NC(=O)c1ccc[nH]1 [Compound 97, N-(3-carbamoyl-5-(morpholinosulfonyl)thiophen-2-yl)-1H-pyrrole-2-carboxamide], the EC50 was over 1000 nM.
NC(=O)c1cc(S(=O)(=O)N2CCOCC2)sc1NC(=O)c1ncco1 [Compound 98, N-(3-carbamoyl-5-(morpholinosulfonyl)thiophen-2-yl)oxazole-2-carboxamide] was tested, and the EC50 was over 1000 nM.
With NC(=O)c1cc(S(=O)(=O)N2CCOCC2)sc1NC(=O)c1ccco1 [Compound 99, N-(3-carbamoyl-5-(morpholinosulfonyl)thiophen-2-yl)furan-2-carboxamide] the EC50 was 1940 nM.
Molecule NC(=O)c1cc(S(=O)(=O)c2ccccc2)sc1NC(=O)c1ccccc1F [Compound 100, 2-(2-fluorobenzamido)-5-(phenylsulfonyl) thiophene-3-carboxamide] has an EC50 of 121 nM.
NC(=O)c1cc(S(=O)(=O)N2CCOCC2)sc1NC(=O)c1cc(C(F)(F)F)[nH]n1 [Compound 102, N-(3-carbamoyl-5-(morpholinosulfonyl)thiophen-2-yl)-5-(trifluoromethyl)-1H-pyrazole-3-carboxamide] showed an EC50 of 215 nM.
In the case of Cc1c(S(=O)(=O)c2ccccc2)sc(NC(=O)c2ccccc2C(F)(F)F)c1C(N)=O [Compound 104, 4-methyl-5-(phenylsulfonyl)-2-(2-(trifluoromethyl)benzamido)thiophene-3-carboxamide], the EC50 is reported as 370 nM.
Molecule Cc1c(S(=O)(=O)N2CCOCC2)sc(NC(=O)c2ccccc2C(F)(F)F)c1C(N)=O [Compound 105, 4-methyl-5-(morpholinosulfonyl)-2-(2-(trifluoromethyl)benzamido) thiophene-3-carboxamide] has an EC50 of 396 nM.
For CN(Cc1ccc(F)cc1)S(=O)(=O)c1cc(C(N)=O)c(NC(=O)c2ccccc2F)s1 [Compound 106, 2-(2-fluorobenzamido)-5-(N-(4-fluorobenzyl)-N-methylsulfamoyl) thiophene-3-carboxamide], the EC50 was 213 nM.
For CN(C(C)(C)C)S(=O)(=O)c1cc(C(N)=O)c(NC(=O)c2ccccc2F)s1 [Compound 107, 5-(N-tert-butyl-N-methylsulfamoyl)-2-(2-fluorobenzamido) thiophene-3-carboxamide], the EC50 was 130 nM.
Work on CN(CC(F)F)S(=O)(=O)c1cc(C(N)=O)c(NC(=O)c2ccccc2F)s1 [Compound 108, 5-(N-(2,2-difluoroethyl)-N-methylsulfamoyl)-2-(2-fluorobenzamido) thiophene-3-carboxamide] yielded an EC50 of 198 nM.
CCc1cc(C(=O)Nc2sc(S(=O)(=O)c3ccc(F)cc3)cc2C(N)=O)n[nH]1 [Compound 110, N-(3-carbamoyl-5-(4-fluorophenylsulfonyl)thiophen-2-yl)-5-ethyl-1H-pyrazole-3-carboxamide] gave an EC50 of 144 nM.
CC(C)(C)C(=O)Nc1sc(S(=O)(=O)c2ccc(F)cc2)cc1C(N)=O [Compound 112, 5-(4-fluorophenylsulfonyl)-2-pivalamidothiophene-3-carboxamide] showed an EC50 of 352 nM.
NC(=O)c1cc(S(=O)(=O)c2cccc(F)c2)sc1NC(=O)c1ccccc1F [Compound 115, 2-(2-fluorobenzamido)-5-(3-fluorophenylsulfonyl) thiophene-3-carboxamide] gave an EC50 of 235 nM.
NC(=O)c1cc(S(=O)(=O)c2ccccc2F)sc1NC(=O)c1ccccc1F [Compound 117, 2-(2-fluorobenzamido)-5-(2-fluorophenylsulfonyl) thiophene-3-carboxamide] was tested, and the EC50 was 138 nM.
CC(C)(C)C(=O)Nc1sc(S(=O)(=O)c2ccc(F)c(F)c2)cc1C(N)=O [Compound 120, 5-(3,4-difluorophenylsulfonyl)-2-pivalamidothiophene-3-carboxamide] was tested, and the EC50 was 488 nM.
Work on Cc1ccc(CN(C)S(=O)(=O)c2cc(C(N)=O)c(NC(=O)c3ccccc3F)s2)cc1 [Compound 124, 2-(2-fluorobenzamido)-5-(N-methyl-N-(4-methylbenzyl)sulfamoyl) thiophene-3-carboxamide] yielded an EC50 of 503 nM.
In the case of CN(CC#N)S(=O)(=O)c1cc(C(N)=O)c(NC(=O)c2ccccc2F)s1 [Compound 125, 5-(N-(cyanomethyl)-N-methylsulfamoyl)-2-(2-fluorobenzamido) thiophene-3-carboxamide], the EC50 is reported as 580 nM.
NC(=O)c1cc(S(=O)(=O)N2CC(F)(F)C2)sc1NC(=O)c1ccccc1F [Compound 126, 5-(3,3-diflluoroazetidin-1-ylsulfonyl)-2-(2-fluorobenzamido) thiophene-3-carboxamide] showed an EC50 of 191 nM.
For CS(=O)(=O)c1cc(C(N)=O)c(NC(=O)c2ccccc2F)s1 [Compound 127, 2-(2-fluorobenzamido)-5-(methylsulfonyl) thiophene-3-carboxamide], the EC50 was 659 nM.
With CCS(=O)(=O)c1cc(C(N)=O)c(NC(=O)c2ccccc2F)s1 [Compound 128, 5-(ethylsulfonyl)-2-(2-fluorobenzamido) thiophene-3-carboxamide] the EC50 was 400 nM.
For NC(=O)c1cc(S(=O)(=O)C2CCCCC2)sc1NC(=O)c1ccccc1F [Compound 129, 5-(cyclohexylsulfonyl)-2-(2-fluorobenzamido) thiophene-3-carboxamide], the EC50 was 275 nM.
Work on COc1ccc(CS(=O)(=O)c2cc(C(N)=O)c(NC(=O)c3ccccc3F)s2)cc1 [Compound 130, 2-(2-fluorobenzamido)-5-(4-methoxybenzylsulfonyl) thiophene-3-carboxamide] yielded an EC50 of 383 nM.
NC(=O)c1cc(S(=O)(=O)N2CCOCC2)sc1NC(=O)C1(O)CC1 [Compound 131, 2-(1-hydroxycyclopropanecarboxamido)-5-(morpholinosulfonyl) thiophene-3-carboxamide] was tested, and the EC50 was 921 nM.
Work on Cc1nc(C(=O)Nc2sc(S(=O)(=O)N3CCOCC3)cc2C(N)=O)cs1 [Compound 132, N-(3-carbamoyl-5-(morpholinosulfonyl)thiophen-2-yl)-2-methylthiazole-4-carboxamide] yielded an EC50 of 3330 nM.

From patent US9382254B2, “Compounds and pharmaceutical compositions thereof for the treatment of cystic fibrosis” (Galapagos NV, priority 2013, dated 2016)
